Laboratory results: patent US11078193B2 (priority 2014, dated 2021)

Experiments:
HBV = experiment: anti HBV activity, HepG2.117 inducibly HBV producing cell line (Tet-off), intracellular HBV DNA by realtime PCR; type: cell-based; settings: Hepatitis B virus, 72 h, HepG2.117 cells, 3 days of treatment
[1] = Cytotoxicity, HepG2 cells, Resazurin assay; type: cell-based; settings: human

CC(O)C(C)NS(=O)(=O)c1cn(C)c(C(=O)Nc2ccnc(Cl)c2)c1Cl (racemic) [Compound 90, (+/−)-3-chloro-N-(2-chloro-4-pyridyl)-4-[(2-hydroxy-1-methyl-propyl)sulfamoyl]-1-methyl-pyrrole-2-carboxamide]
EC50 (HBV): 450 nM | CC50 at 4 days [1]: > 25000 nM

CC(C)NS(=O)(=O)c1cn(C)c(C(=O)Nc2ccnc(C#N)c2)c1F [Compound 27, N-(2-cyano-4-pyridyl)-3-fluoro-4-(isopropylsulfamoyl)-1-methyl-pyrrole-2-carboxamide]
EC50 (HBV): 100 nM | CC50 at 4 days [1]: > 25000 nM

Cc1cc(NC(=O)c2c(Cl)c(S(=O)(=O)N[C@H](C)C(F)(F)F)cn2C)cc(C#N)n1 [Compound 36, 3-chloro-N-(2-cyano-6-methyl-4-pyridyl)-1-methyl-4-[[(1R)-2,2,2-trifluoro-1-methyl-ethyl]sulfamoyl]pyrrole-2-carboxamide]
EC50 (HBV): 150 nM | CC50 at 4 days [1]: > 25000 nM

C[C@@H](NS(=O)(=O)c1cn(C)c(C(=O)Nc2cc(F)nc(F)c2F)c1Cl)C(F)(F)F [Compound 43, 3-chloro-1-methyl-4-[[(1R)-2,2,2-trifluoro-1-methyl-ethyl]sulfamoyl]-N-(2,3,6-trifluoro-4-pyridyl)pyrrole-2-carboxamide]
EC50 (HBV): 80 nM | CC50 at 4 days [1]: > 25000 nM

C[C@@H](NS(=O)(=O)c1cn(C)c(C(=O)Nc2c(F)cnc(F)c2F)c1Cl)C(F)(F)F [Compound 44, 3-chloro-1-methyl-4-[[(1R)-2,2,2-trifluoro-1-methyl-ethyl]sulfamoyl]-N-(2,3,5-trifluoro-4-pyridyl)pyrrole-2-carboxamide]
EC50 (HBV): 640 nM | CC50 at 4 days [1]: > 25000 nM

C[C@@H](NS(=O)(=O)c1cn(C)c(C(=O)Nc2ccc(F)nc2)c1Cl)C(F)(F)F [Compound 50, 3-chloro-N-(6-fluoro-3-pyridyl)-1-methyl-4-[[(1R)-2,2,2-trifluoro-1-methyl-ethyl]sulfamoyl]pyrrole-2-carboxamide]
EC50 (HBV): 200 nM | CC50 at 4 days [1]: > 25000 nM

C[C@@H](NS(=O)(=O)c1cn(C)c(C(=O)Nc2ccc(F)cn2)c1Cl)C(F)(F)F [Compound 51, 3-chloro-N-(5-fluoro-2-pyridyl)-1-methyl-4-[[(1R)-2,2,2-trifluoro-1-methyl-ethyl]sulfamoyl]pyrrole-2-carboxamide]
EC50 (HBV): 600 nM | CC50 at 4 days [1]: > 25000 nM

Cn1cc(S(=O)(=O)NC2(C(F)(F)F)CC2)cc1C(=O)Nc1ccnc(Cl)c1 [Compound 52, N-(2-chloro-4-pyridyl)-1-methyl-4-[[1-(trifluoromethyl)cyclopropyl]-sulfamoyl]pyrrole-2-carboxamide]
EC50 (HBV): 80 nM | CC50 at 4 days [1]: > 25000 nM

Cn1cc(S(=O)(=O)NC2(C)CC(F)(F)C2)c(F)c1C(=O)Nc1ccnc(Cl)c1 [Compound 54, N-(2-chloro-4-pyridyl)-4-[(3,3-difluoro-1-methyl-cyclobutyl)sulfamoyl]-3-fluoro-1-methyl-pyrrole-2-carboxamide]
EC50 (HBV): 20 nM | CC50 at 4 days [1]: > 25000 nM

Cn1cc(S(=O)(=O)NC2(C)CC(F)(F)C2)c(F)c1C(=O)Nc1ccnc(C(F)(F)F)c1 [Compound 55, 4-[(3,3-difluoro-1-methyl-cyclobutyl)sulfamoyl]-3-fluoro-1-methyl-N-[2-(trifluoromethyl)-4-pyridyl]pyrrole-2-carboxamide]
EC50 (HBV): 70 nM | CC50 at 4 days [1]: > 25000 nM

C[C@@H](NS(=O)(=O)c1cn(C)c(C(=O)Nc2ccnc(C(F)(F)F)c2F)c1Cl)C(F)(F)F [Compound 56, 3-chloro-N-[3-fluoro-2-(trifluoromethyl)-4-pyridyl]-1-methyl-4-[[(1R)-2,2,2-trifluoro-1-methyl-ethyl]sulfamoyl]pyrrole-2-carboxamide]
EC50 (HBV): 50 nM | CC50 at 4 days [1]: > 25000 nM

C[C@@H](NS(=O)(=O)c1cn(C)c(C(=O)Nc2cnc(F)c(F)c2)c1Cl)C(F)(F)F [Compound 57, 3-chloro-N-(5,6-difluoro-3-pyridyl)-1-methyl-4-[[(1R)-2,2,2-trifluoro-1-methyl-ethyl]sulfamoyl]pyrrole-2-carboxamide]
EC50 (HBV): 60 nM | CC50 at 4 days [1]: > 25000 nM
